The supplement of paper PMC10307832

Experiments:
Assay in all cases: relative viability (nuclei count vs DMSO), 5 days (fraction); higher = more cells survive
NCI-H2087 = test system: NCI-H2087
Method in brief: (§1)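 Relative viability divides the nuclei count in treated wells by that in vehicle wells. Lung cancer cell lines were seeded in 1536-well plates, dosed by pin tool the next day, and fixed and stained after 5 days in one step with final 0.05% Triton X-100, 1% formaldehyde and 1 ug/ml Hoechst. Dosing was a single drug or a fixed anchor-drug dose plus five library-drug doses (not always all listed) in √10 steps, and values are medians of duplicate plates imaged at 4×.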

NCI-H1793 = test system: NCI-H1793
Method in brief: as §1

PC-3 [JPC-3] = test system: PC-3 [JPC-3]
Method in brief: as §1

NCI-H2170 = test system: NCI-H2170
Method in brief: as §1

NCI-H1651 = test system: NCI-H1651
Method in brief: as §1

HCC-366 = test system: HCC-366
Method in brief: as §1

NCI-H1395 = test system: NCI-H1395
Method in brief: as §1

NCI-H2405 = test system: NCI-H2405
Method in brief: as §1

ChaGo-K-1 = test system: ChaGo-K-1
Method in brief: as §1

NCI-H2228 = test system: NCI-H2228
Method in brief: as §1

LU99A = test system: LU99A
Method in brief: as §1

HCC-78 = test system: HCC-78
Method in brief: as §1

LOU-NH91 = test system: LOU-NH91
Method in brief: as §1

NCI-H3122 = test system: NCI-H3122
Method in brief: as §1

NCI-H1944 = test system: NCI-H1944
Method in brief: as §1

UMC-11 = test system: UMC-11
Method in brief: as §1

CAL-12T = test system: CAL-12T
Method in brief: as §1

RERF-LC-KJ = test system: RERF-LC-KJ
Method in brief: as §1

NCI-H460 = test system: NCI-H460
Method in brief: as §1

LC-2-ad = test system: LC-2-ad
Method in brief: as §1

NCI-H1755 = test system: NCI-H1755
Method in brief: as §1

## CCN(CC)CCCCNc1ncc2cc(-c3cc(OC)cc(OC)c3)c(NC(=O)NC(C)(C)C)nc2n1 + CC(=O)Nc1cccc(-n2c(=O)n(C3CC3)c(=O)c3c(Nc4ccc(I)cc4F)n(C)c(=O)c(C)c32)c1 [Trametinib] (partner 0.02 µM)
NCI-H2087; first compound 0.01 µM
  relative viability: 0.202
NCI-H2087; first compound 0.03162 µM
  relative viability: 0.171
NCI-H2087; first compound 0.1 µM
  relative viability: 0.217
NCI-H2087; first compound 0.3162 µM
  relative viability: 0.189
NCI-H2087; first compound 1 µM
  relative viability: 0.209
NCI-H1793; first compound 0.01 µM
  relative viability: 0.456
NCI-H1793; first compound 0.03162 µM
  relative viability: 0.405
NCI-H1793; first compound 0.1 µM
  relative viability: 0.422
NCI-H1793; first compound 0.3162 µM
  relative viability: 0.337
NCI-H1793; first compound 1 µM
  relative viability: 0.238
PC-3 [JPC-3]; first compound 0.03162 µM
  relative viability: 0.698
PC-3 [JPC-3]; first compound 0.1 µM
  relative viability: 0.766
PC-3 [JPC-3]; first compound 0.3162 µM
  relative viability: 0.72
PC-3 [JPC-3]; first compound 1 µM
  relative viability: 0.683
NCI-H2170; first compound 0.01 µM
  relative viability: 0.987
NCI-H2170; first compound 0.03162 µM
  relative viability: 0.929
NCI-H2170; first compound 0.1 µM
  relative viability: 0.894
NCI-H2170; first compound 0.3162 µM
  relative viability: 1
NCI-H2170; first compound 1 µM
  relative viability: 0.719
NCI-H1651; first compound 0.01 µM
  relative viability: 0.863
NCI-H1651; first compound 0.03162 µM
  relative viability: 0.802
NCI-H1651; first compound 0.1 µM
  relative viability: 0.842
NCI-H1651; first compound 0.3162 µM
  relative viability: 0.836
NCI-H1651; first compound 1 µM
  relative viability: 0.806
HCC-366; first compound 0.01 µM
  relative viability: 0.352
HCC-366; first compound 0.03162 µM
  relative viability: 0.386
HCC-366; first compound 0.1 µM
  relative viability: 0.437
HCC-366; first compound 0.3162 µM
  relative viability: 0.358
HCC-366; first compound 1 µM
  relative viability: 0.309
NCI-H1395; first compound 0.01 µM
  relative viability: 1.05
NCI-H1395; first compound 0.03162 µM
  relative viability: 0.918
NCI-H1395; first compound 0.1 µM
  relative viability: 0.907
NCI-H1395; first compound 0.3162 µM
  relative viability: 0.63
NCI-H1395; first compound 1 µM
  relative viability: 0.568
NCI-H2405; first compound 0.01 µM
  relative viability: 0.574
NCI-H2405; first compound 0.03162 µM
  relative viability: 0.669
NCI-H2405; first compound 0.1 µM
  relative viability: 0.796
NCI-H2405; first compound 0.3162 µM
  relative viability: 0.655
NCI-H2405; first compound 1 µM
  relative viability: 0.5
ChaGo-K-1; first compound 0.01 µM
  relative viability: 0.906
ChaGo-K-1; first compound 0.03162 µM
  relative viability: 0.902
ChaGo-K-1; first compound 0.1 µM
  relative viability: 0.951
ChaGo-K-1; first compound 0.3162 µM
  relative viability: 0.962
ChaGo-K-1; first compound 1 µM
  relative viability: 0.885
NCI-H2228; first compound 0.01 µM
  relative viability: 0.449
NCI-H2228; first compound 0.03162 µM
  relative viability: 0.551
NCI-H2228; first compound 0.1 µM
  relative viability: 0.311
NCI-H2228; first compound 0.3162 µM
  relative viability: 0.543
NCI-H2228; first compound 1 µM
  relative viability: 0.309
LU99A; first compound 0.01 µM
  relative viability: 0.593
LU99A; first compound 0.03162 µM
  relative viability: 0.537
LU99A; first compound 0.1 µM
  relative viability: 0.527
LU99A; first compound 0.3162 µM
  relative viability: 0.6
LU99A; first compound 1 µM
  relative viability: 0.505
HCC-78; first compound 0.01 µM
  relative viability: 0.874
HCC-78; first compound 0.03162 µM
  relative viability: 0.685
HCC-78; first compound 0.1 µM
  relative viability: 0.842
HCC-78; first compound 0.3162 µM
  relative viability: 0.819
HCC-78; first compound 1 µM
  relative viability: 0.76
LOU-NH91; first compound 0.01 µM
  relative viability: 0.758
LOU-NH91; first compound 0.03162 µM
  relative viability: 0.771
LOU-NH91; first compound 0.1 µM
  relative viability: 0.829
LOU-NH91; first compound 0.3162 µM
  relative viability: 0.844
LOU-NH91; first compound 1 µM
  relative viability: 0.766
NCI-H3122; first compound 0.01 µM
  relative viability: 0.246
NCI-H3122; first compound 0.03162 µM
  relative viability: 0.229
NCI-H3122; first compound 0.1 µM
  relative viability: 0.226
NCI-H3122; first compound 0.3162 µM
  relative viability: 0.239
NCI-H3122; first compound 1 µM
  relative viability: 0.247
NCI-H1944; first compound 0.01 µM
  relative viability: 0.428
NCI-H1944; first compound 0.03162 µM
  relative viability: 0.398
NCI-H1944; first compound 0.1 µM
  relative viability: 0.403
NCI-H1944; first compound 0.3162 µM
  relative viability: 0.416
NCI-H1944; first compound 1 µM
  relative viability: 0.401
UMC-11; first compound 0.01 µM
  relative viability: 0.686
UMC-11; first compound 0.03162 µM
  relative viability: 0.483
UMC-11; first compound 0.1 µM
  relative viability: 0.593
UMC-11; first compound 0.3162 µM
  relative viability: 0.764
UMC-11; first compound 1 µM
  relative viability: 0.695
CAL-12T; first compound 0.01 µM
  relative viability: 0.3
CAL-12T; first compound 0.03162 µM
  relative viability: 0.338
CAL-12T; first compound 0.1 µM
  relative viability: 0.372
CAL-12T; first compound 0.3162 µM
  relative viability: 0.261
CAL-12T; first compound 1 µM
  relative viability: 0.333
RERF-LC-KJ; first compound 0.01 µM
  relative viability: 0.925
RERF-LC-KJ; first compound 0.03162 µM
  relative viability: 0.923
RERF-LC-KJ; first compound 0.1 µM
  relative viability: 0.94
RERF-LC-KJ; first compound 0.3162 µM
  relative viability: 0.906
RERF-LC-KJ; first compound 1 µM
  relative viability: 0.818
NCI-H460; first compound 0.01 µM
  relative viability: 0.127
NCI-H460; first compound 0.03162 µM
  relative viability: 0.208
NCI-H460; first compound 0.1 µM
  relative viability: 0.153
NCI-H460; first compound 0.3162 µM
  relative viability: 0.124
NCI-H460; first compound 1 µM
  relative viability: 0.062
LC-2-ad; first compound 0.01 µM
  relative viability: 0.874
LC-2-ad; first compound 0.03162 µM
  relative viability: 1.02
LC-2-ad; first compound 0.1 µM
  relative viability: 0.992
LC-2-ad; first compound 0.3162 µM
  relative viability: 0.967
LC-2-ad; first compound 1 µM
  relative viability: 0.841
NCI-H1755; first compound 0.01 µM
  relative viability: 0.83
NCI-H1755; first compound 0.03162 µM
  relative viability: 0.776
NCI-H1755; first compound 0.1 µM
  relative viability: 0.759
NCI-H1755; first compound 0.3162 µM
  relative viability: 0.827
NCI-H1755; first compound 1 µM
  relative viability: 0.55
